According to patent US20130287870A1, “NOVEL USES FOR TRADITIONAL CHINESE MEDICINE” (priority 2012, published 2013):

Experiments:
[1] = tested on: cortical neurons; test: Oxygen glucose deprivation (OGD) model, neuronal death assessed by Hoechst staining; format: cell-based, mouse; settings: glibenclamide 10 μM applied 30 min before MLC901 1 μg/mL
Experimental: Time-pregnant (E14) C57B16/J mice were anesthetized with isopentane followed by cervical dislocation as previously described (Heurteaux et al., 2010). Fetuses were removed and placed in cold HBSS^+ solution. Cerebral cortices were dissected in cold HBSS^+ solution and the meninges were removed. Cortical samples were cut in small pieces and were gently triturated with a fire-polished glass Pasteur pipette in 8 ml HBSS^+ solution. The mix was filtered (40 μm filter) and centrifuged at 800 rpm for 8 min. The supernatant was removed and the pellet was dissolved in 2 ml culture medium. Cells were plated on poly-D-lysine (Sigma-Aldrich Chimie, St Quentin Fallavier, France)-coated 12 well (24 mm diameter) plates with glass coverslips (12 mm diameter) (CML, Nemours, France) at a density of 1×10^6 cells/well. Cultures were maintained at 37° C. in a humidified 95% air/5% CO2 atmosphere incubator in Neurobasal supplemented with B27, Glutamax, 100 units/ml penicillin, and 100 µg/ml streptomycin and used for experiments up to 12 days. Glial growth was suppressed by addition of 5-Fluoro-2-deoxyuridine (2 μM) and Uridine (2 μM) during the second day of culture.
OGD experiments were performed on primary mouse cortical neurons seeded at a density of 1,000,000 cells/35-mm dish after 4 days of culture (Goldberg and Choi, 1993). […]

[2] = tested on: cortical neurons; test: Membrane hyperpolarization associated with neuroprotection; format: cell-based, mouse
[3] = target: T1, KATP channels in INS-R9 insulinoma cells (Rattus norvegicus, UniProt P70673+Q09429); test: Whole cell patch clamp recording of endogenous KATP currents in INS-R9 cells; format: cell-based; settings: 10 μM pinacidil applied with MLC901 1 μg/mL
T1 construct: Insulinoma cells naturally have KATP channels; endogenous in cells; host or cells: rat INS-R9 insulinoma cells

[4] = target: KATP channel (Kir 6.2 and SUR 1) (Homo sapiens, UniProt Q09428+Q14654); test: Two-electrode voltage clamp of KATP channels expressed in Xenopus oocytes, preactivated by sodium azide; format: cell-based; settings: sodium azide 3 mM; test substance 10 μM
KATP channel (Kir 6.2 and SUR 1), sequence (Q14654 whole entry): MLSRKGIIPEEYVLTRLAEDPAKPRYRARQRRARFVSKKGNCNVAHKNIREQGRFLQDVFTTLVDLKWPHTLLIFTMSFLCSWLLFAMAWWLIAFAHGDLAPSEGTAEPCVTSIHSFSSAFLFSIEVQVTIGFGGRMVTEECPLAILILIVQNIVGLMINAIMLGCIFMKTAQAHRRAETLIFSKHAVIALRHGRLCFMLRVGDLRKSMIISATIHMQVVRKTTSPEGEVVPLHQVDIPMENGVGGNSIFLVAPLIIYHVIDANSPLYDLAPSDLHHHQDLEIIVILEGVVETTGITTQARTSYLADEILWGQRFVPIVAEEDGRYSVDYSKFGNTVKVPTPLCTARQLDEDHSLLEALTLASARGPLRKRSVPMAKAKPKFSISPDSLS
KATP channel (Kir 6.2 and SUR 1), sequence (Q09428 whole entry): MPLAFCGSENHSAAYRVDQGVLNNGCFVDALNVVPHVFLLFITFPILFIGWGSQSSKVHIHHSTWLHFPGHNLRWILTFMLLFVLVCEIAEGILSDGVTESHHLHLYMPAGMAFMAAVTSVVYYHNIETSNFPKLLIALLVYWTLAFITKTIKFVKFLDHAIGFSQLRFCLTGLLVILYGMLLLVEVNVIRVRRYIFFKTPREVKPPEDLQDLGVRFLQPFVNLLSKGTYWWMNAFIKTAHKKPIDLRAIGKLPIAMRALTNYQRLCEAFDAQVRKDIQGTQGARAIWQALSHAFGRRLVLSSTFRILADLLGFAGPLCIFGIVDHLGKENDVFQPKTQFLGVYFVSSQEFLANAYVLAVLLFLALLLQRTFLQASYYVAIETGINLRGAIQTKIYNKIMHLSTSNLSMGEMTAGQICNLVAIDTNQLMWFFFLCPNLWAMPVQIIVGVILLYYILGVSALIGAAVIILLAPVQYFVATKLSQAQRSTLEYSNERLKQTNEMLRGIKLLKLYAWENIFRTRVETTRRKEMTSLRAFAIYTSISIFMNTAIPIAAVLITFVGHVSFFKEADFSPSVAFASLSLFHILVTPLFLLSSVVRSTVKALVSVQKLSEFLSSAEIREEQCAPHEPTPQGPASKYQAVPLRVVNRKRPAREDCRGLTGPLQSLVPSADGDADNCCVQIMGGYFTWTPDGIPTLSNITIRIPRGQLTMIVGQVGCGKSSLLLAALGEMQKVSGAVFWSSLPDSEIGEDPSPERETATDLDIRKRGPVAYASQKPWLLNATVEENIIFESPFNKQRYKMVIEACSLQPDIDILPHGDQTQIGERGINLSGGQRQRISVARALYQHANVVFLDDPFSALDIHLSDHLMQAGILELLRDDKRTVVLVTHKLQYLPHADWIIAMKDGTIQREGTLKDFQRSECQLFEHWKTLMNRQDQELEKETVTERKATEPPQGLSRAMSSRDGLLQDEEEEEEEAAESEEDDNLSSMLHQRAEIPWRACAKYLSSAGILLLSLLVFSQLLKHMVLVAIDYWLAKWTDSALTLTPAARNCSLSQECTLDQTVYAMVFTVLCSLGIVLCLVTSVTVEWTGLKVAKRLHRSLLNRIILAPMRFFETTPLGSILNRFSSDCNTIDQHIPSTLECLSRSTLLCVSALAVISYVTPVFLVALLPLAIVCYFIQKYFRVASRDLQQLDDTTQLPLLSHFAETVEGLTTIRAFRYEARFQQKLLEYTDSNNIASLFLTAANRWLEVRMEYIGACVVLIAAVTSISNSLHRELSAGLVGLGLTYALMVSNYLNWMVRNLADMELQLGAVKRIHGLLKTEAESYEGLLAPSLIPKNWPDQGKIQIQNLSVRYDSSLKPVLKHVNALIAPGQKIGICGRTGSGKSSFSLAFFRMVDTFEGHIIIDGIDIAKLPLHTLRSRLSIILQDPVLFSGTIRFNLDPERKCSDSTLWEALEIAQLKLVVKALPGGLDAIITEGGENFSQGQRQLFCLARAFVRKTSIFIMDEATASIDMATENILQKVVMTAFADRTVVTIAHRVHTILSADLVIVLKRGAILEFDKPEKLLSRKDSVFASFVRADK

T1 sequence (P70673 whole entry): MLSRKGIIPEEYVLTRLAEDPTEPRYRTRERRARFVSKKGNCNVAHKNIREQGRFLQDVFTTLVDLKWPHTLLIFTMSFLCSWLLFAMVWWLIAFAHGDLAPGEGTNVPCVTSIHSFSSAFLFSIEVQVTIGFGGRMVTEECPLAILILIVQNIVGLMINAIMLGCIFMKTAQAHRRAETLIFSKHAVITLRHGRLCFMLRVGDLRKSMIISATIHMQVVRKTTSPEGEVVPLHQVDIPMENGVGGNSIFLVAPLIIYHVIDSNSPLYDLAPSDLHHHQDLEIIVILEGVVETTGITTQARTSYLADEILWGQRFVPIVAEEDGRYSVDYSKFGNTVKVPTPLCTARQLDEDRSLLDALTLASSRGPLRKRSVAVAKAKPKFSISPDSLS
T1 sequence (Q09429 whole entry): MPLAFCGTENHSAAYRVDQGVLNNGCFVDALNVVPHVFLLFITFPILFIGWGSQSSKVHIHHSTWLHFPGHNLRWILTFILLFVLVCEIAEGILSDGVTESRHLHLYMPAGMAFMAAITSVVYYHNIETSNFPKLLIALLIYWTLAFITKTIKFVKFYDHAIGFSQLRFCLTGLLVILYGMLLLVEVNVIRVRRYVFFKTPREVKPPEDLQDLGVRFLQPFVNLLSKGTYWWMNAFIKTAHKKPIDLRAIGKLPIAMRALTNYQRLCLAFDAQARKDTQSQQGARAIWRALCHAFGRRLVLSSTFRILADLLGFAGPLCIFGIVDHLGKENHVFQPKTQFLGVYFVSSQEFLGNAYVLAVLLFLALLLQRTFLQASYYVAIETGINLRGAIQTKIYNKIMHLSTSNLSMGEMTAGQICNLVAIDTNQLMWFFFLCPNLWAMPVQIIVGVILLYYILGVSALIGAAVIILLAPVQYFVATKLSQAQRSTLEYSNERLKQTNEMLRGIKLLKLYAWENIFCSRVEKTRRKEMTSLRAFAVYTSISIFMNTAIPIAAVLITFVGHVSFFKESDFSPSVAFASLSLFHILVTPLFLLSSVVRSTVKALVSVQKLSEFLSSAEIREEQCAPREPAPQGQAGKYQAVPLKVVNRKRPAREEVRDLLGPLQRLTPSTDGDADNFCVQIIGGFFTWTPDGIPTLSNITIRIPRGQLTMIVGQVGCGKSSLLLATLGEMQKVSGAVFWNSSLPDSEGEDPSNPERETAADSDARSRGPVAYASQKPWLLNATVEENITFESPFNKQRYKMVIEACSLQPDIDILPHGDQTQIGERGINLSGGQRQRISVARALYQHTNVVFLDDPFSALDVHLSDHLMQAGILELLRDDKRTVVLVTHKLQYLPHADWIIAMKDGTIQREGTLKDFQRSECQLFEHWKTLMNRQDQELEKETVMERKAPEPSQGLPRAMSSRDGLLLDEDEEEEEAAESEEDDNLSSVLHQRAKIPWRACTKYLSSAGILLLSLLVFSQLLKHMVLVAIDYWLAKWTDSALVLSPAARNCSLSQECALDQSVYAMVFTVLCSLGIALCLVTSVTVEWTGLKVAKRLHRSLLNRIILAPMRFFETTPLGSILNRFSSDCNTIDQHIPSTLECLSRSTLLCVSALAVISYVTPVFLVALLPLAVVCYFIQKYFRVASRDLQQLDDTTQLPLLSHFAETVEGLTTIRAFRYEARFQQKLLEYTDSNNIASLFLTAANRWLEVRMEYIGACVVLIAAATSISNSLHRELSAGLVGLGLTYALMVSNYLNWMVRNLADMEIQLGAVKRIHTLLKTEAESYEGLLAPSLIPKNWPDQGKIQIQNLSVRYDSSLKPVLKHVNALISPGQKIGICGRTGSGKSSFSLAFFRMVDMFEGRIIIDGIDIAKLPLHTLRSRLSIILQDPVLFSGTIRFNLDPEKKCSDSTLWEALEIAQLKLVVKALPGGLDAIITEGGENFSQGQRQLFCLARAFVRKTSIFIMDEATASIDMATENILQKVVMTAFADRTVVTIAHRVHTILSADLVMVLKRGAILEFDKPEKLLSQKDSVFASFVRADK

KATP current in INS-R9 cells, combination with MLC901 [3] | amplitude of the azide-induced KATP channel current [4] | SMILES | effect on the protection induced by MLC901 against OGD damage [1] | effect on MLC901-induced hyperpolarization [2]
– | – | COc1ccc(Cl)cc1C(=O)NCCc1ccc(S(=O)(=O)NC(=O)NC2CCCCC2)cc1 [glibenclamide] | inhibited the protection induced by MLC901 | antagonized
additive effect | amplified | CC(N=C(NC#N)Nc1ccncc1)C(C)(C)C (stereo not shown) [pinacidil, N-cyano-N′-pyridin-4-yl-N″-(1,2,2-trimethylpropyl)guanidine] | – | –
